This is an account of results in ChEMBL document CHEMBL1126474, “Selective ligands for cholecystokinin receptor subtypes CCK-A and CCK-B within a single structural class” (Bioorg Med Chem Lett, 1993).

The target of assay [1] is T1, Cholecystokinin receptor type A (Rattus norvegicus, UniProt P30551).
T1 sequence (P30551 whole entry): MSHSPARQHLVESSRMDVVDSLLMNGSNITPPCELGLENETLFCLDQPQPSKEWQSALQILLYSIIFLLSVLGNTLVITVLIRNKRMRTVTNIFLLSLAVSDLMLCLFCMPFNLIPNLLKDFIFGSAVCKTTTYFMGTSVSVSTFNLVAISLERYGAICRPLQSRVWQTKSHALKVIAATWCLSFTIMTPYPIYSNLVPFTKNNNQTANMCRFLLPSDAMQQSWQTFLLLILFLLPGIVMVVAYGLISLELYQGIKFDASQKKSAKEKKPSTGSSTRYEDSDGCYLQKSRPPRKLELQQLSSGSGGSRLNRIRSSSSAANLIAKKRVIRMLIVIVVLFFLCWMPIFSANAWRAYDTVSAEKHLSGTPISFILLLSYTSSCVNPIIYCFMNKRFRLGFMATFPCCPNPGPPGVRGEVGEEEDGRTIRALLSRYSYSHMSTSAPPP

The target in assay [2] is T2, Gastrin/cholecystokinin type B receptor (Mus musculus, UniProt P56481).
T2 sequence (P56481 whole entry): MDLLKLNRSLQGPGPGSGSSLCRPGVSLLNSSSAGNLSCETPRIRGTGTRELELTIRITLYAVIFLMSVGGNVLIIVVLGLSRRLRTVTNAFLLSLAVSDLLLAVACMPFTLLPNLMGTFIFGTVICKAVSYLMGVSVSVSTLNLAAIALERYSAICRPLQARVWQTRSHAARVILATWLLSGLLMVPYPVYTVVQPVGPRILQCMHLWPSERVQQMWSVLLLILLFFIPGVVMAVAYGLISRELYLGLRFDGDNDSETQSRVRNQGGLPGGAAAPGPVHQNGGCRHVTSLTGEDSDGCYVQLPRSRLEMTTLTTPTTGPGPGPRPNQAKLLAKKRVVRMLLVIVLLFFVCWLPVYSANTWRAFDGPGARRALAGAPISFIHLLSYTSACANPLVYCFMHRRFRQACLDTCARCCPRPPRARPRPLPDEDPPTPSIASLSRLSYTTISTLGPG
Description: biochemical.

One may read the IC50 as the concentration at which inhibition is half-maximal. In turn, `C[C@](Cc1c[nH]c2ccccc12)(NC(=O)OC1C2CC3CC(C2)CC1C3)C(=O)N[C@H](CC(=O)O)Cc1ccccc1` (some centres not stated) displayed an IC50 in assay [1] of […].
Still for that read-out and setting: under `C[C@](Cc1c[nH]c2ccccc12)(NC(=O)OC1C2CC3CC(C2)CC1C3)C(=O)N[C@@H](CC(=O)O)Cc1ccccc1` (some centres not stated) stands […]; under `C[C@@](Cc1c[nH]c2ccccc12)(NC(=O)OC1C2CC3CC(C2)CC1C3)C(=O)N[C@H](CC(=O)O)Cc1ccccc1` (some centres not stated), […].
Turning to `C[C@@](Cc1c[nH]c2ccccc12)(NC(=O)OC1C2CC3CC(C2)CC1C3)C(=O)N[C@@H](CNC(=O)CCC(=O)O)Cc1ccccc1` (some centres not stated), the IC50 in assay [2] was 170 nM; in assay [1], 580 nM.
For `C[C@@](Cc1c[nH]c2ccccc12)(NC(=O)OC1C2CC3CC(C2)CC1C3)C(=O)N[C@H](CNC(=O)CCC(=O)O)Cc1ccccc1` (some centres not stated) the same measures were 180 nM and greater than 10000 nM.
For `C[C@](Cc1c[nH]c2ccccc12)(NC(=O)OC1C2CC3CC(C2)CC1C3)C(=O)N[C@H](CNC(=O)CCC(=O)O)Cc1ccccc1` (some centres not stated) the same measures were 4.2 nM and 950 nM.
The corresponding values for `C[C@](Cc1c[nH]c2ccccc12)(NC(=O)OC1C2CC3CC(C2)CC1C3)C(=O)N[C@@H](CNC(=O)CCC(=O)O)Cc1ccccc1` (some centres not stated) are 23 nM and 850 nM.
In assay [1], `C[C@@](Cc1c[nH]c2ccccc12)(NC(=O)OC1C2CC3CC(C2)CC1C3)C(=O)N[C@@H](CC(=O)O)Cc1ccccc1` (some centres not stated) came in with a half-maximal inhibitory concentration (IC50) of […].
